Results on five compounds are retold here after US4495199A, “Dioxolanic amine with pharmacological activity, its method of preparation, the pharmaceutical compositions containing same and their use in human medicine” (priority 1982, dated 1985).

Usually ED50 stands for the dose that gives a 50% effect, or the effect in half of the subjects. As usually defined, the LD50 is the dose at which mortality reaches 50%. Low values mean a more toxic substance, high ones a less toxic substance.

For data set [1], the system named is fibrillation by chloroform in the male NMRI mouse. Kind of data set: Anti-arrhythmic activity, fibrillation by chloroform in the mouse, p.o. The format is in vivo. From the text:
Tables 5 and 6 show the anti-arrythmic activity of the ITA 362 in the male NMRI mouse by oral and intraperitoneal route using the fibrillation test by chloroform in the mouse. (V. W. Lawson, J. Pharmacol. Exp. Ther. 160, 22, 1968; B. Vargaftig, J. L. Coignet. Eur.J. Pharmacol. 6, 49, 1969).
The activity of the two forms of maleate described in the example 4 were studied, with that in the table subtitled as isomer A corresponding to the first fraction obtained in the aforementioned example, and isomer B corresponding to the second fraction.

Data set [2] is described as follows: Hygroscopicity. It counts as physicochemical.
Data set [3] has as its system rat. Kind of data set: Acute toxicity, oral, rat. The format is in vivo. As for the experimental part:
(§1) The respective lethal dose 50 was calculated according to the method of Litchfield and Wilcoxon (Jl. Pharmacol. Exptl. 96 99, 1949).

The test system of data set [4] is mouse. Kind of data set: Acute toxicity, oral, mouse. It counts as in vivo. As for the experimental part: as §1
For data set [5], the system named is hindquarters of rats. Kind of data set: Vasodilatory activity, perfusion of the hindquarters of rats with a hyperpotasemic solution. Also noted: species or system rat. Particulars: summary statement. From the text: In the Table 3 is shown the results of the vasodilatory activity of the ITA 362 in the perfusion test of the hindquarters of rats with a hyperpotasemic solution. (F. N. Fastier, F. M. Smirk. Jl, Pharmacolog. Exp. Therapy. 89. 256, 1947).

In data set [6] the test system is T wave in the conscious dog. Kind of data set: Anti-angina activity, amplitude increase protection of the T wave by vasopression in the conscious dog. It counts as in vivo. The source says: The antiangina activity was also compared with that of the nitroglycerine by means of the amplitude increase protection test of the T wave for vasopression in the conscious dog. (A. Lindner, M. London, G. Werner, Scheiz. Med. Wsohr. 83, 360, 1953; J. Papp. L. Szekeres. Arch. Int. Pharmacodyn, 160, 1, 1966).

Counter-ions that a name gives are not always drawn.

For the compound `CCCCNCC1COC(c2ccc(Cl)cc2)(c2cc3ccccc3o2)O1` (single isomer, unassigned) [ITA 362 maleate (isomer A)], the ED50 in data set [1] (Mus musculus, po, read-out: ED50 and confidence limits p < 0.05, p.o., dose column in mg/kg) stood at 35.4 mg/kg.

On to `CCCCNCC1COC(c2ccc(Cl)cc2)(c2cc3ccccc3o2)O1` (stereo not drawn) [ITA 362 citrate], for which the “% protection versus fibrillation” value in data set [1] (3.125 mg/kg p.o.) amounted to 10%. Moreover, the hygroscopicity entry in data set [2] is given as “highly hydroscopic”.

Take `CCCCNCC1COC(c2ccc(Cl)cc2)(c2cc3ccccc3o2)O1` (stereo not drawn) [ITA 362 maleate, 2-(2'-benzofuranil)-4-butylaminomethyl-2-p-chlorophenyl-1,3-dioxolane, maleate]: the LD50 is above 4000 mg/kg in data set [3] (rat, oral) and above 4000 mg/kg in data set [4].

Turning to `CCCCNCC1COC(c2ccc(Cl)cc2)(c2cc3ccccc3o2)O1` (stereo not drawn) [ITA 362, 2-(2'-benzofuranil)-4-n-butylaminomethyl-2-p-chlorophenyl-1,3-dioxolan], the “toxicity (in words)” value in data set [3] (summary statement, species not specified) is “low toxicity”. Besides, the “anti-arrhythmic activity (in words)” value in data set [1] (summary statement) is reported as “intense”. In addition, in data set [5], the “vasodilatory activity (in words)” value is given as “intense”. Moreover, the “Antiangina activity relative to nitroglycerine” value in data set [6] (1 mg/kg i.v. vs nitroglycerine 0.4 mg/kg) is listed as “greater than that of nitroglycerine”. Moreover, the “anti-angina activity (in words)” value in data set [6] (summary statement) is “intense”.

Regarding `O=[N+]([O-])OCC(CO[N+](=O)[O-])O[N+](=O)[O-]` [Nitroglycerine, reference compound], the “quot. Control/treatment” value in data set [6] (0.4 mg/kg i.v.) is listed as 1.520. In data set [6] (0.4 mg/kg i.v., t student n.s.), the “% Prot.” value was 28.9%.
